Values of other authors in publication PMC11064828 (Journal of Nuclear Medicine, 2024).

Legend:
CAIX [1] = settings: phase 1 study of advanced solid tumors
Excerpt: (§1) As a direct transcriptional target of hypoxia-inducible factor 1α, CAIX is overexpressed in several hard-to-treat tumors, including ccRCC, CRC, breast cancer, and PDAC ([2],[9]–[11]), making it a promising therapeutic target. However, to date, the transition of CAIX-targeting therapies to clinical settings has been poor ([7],[13]). Several small-molecule inhibitors of CAs, including CAIX, have been developed ([7],[13]).

CAIX [2] = settings: 2 clinical trials of metastatic ccRCC
Excerpt: as §1, with “([7],[13]).” for “([7],[13]). Several small-molecule inhibitors of CAs, including CAIX, have been developed ([7],[13]).”

Compound: NS(=O)(=O)c1ccc(NC(=O)Nc2ccc(F)cc2)cc1 [SLC-0111]
- objective responses (CAIX [1]): no objective responses
- tolerability (CAIX [1]): well tolerated

Compound: G250 to the β-emitter [^177Lu]Lu: anti-CAIX monoclonal antibody G250 conjugated to the β-emitter [^177Lu]Lu
- dose-limiting toxicity (CAIX [2]): dose-limiting myelotoxicity
